≈ marks a conversion by molar mass, not a printed value.
Experiments:
Plasmodium falciparum [1] = experiment: Antiplasmodial activity after 48 hrs against Plasmodium falciparum FCR3F86 by [3H]hypoxanthine uptake; type: functional, organism-based
Plasmodium falciparum [2] = experiment: Antiplasmodial activity after 48 hrs against Plasmodium falciparum W2 by [3H]hypoxanthine uptake; type: functional, organism-based
Plasmodium falciparum [3] = experiment: Antiplasmodial activity after 48 hrs against Plasmodium falciparum D6 by [3H]hypoxanthine uptake; type: functional, organism-based
KB = experiment: Cytotoxicity against human KB cells assessed as [3H]hypoxanthine incorporation after 48 hrs; type: functional, cell-based

IC50 (Plasmodium falciparum [1]) [µg/mL]	IC50 (Plasmodium falciparum [2]) [µg/mL]	IC50 (Plasmodium falciparum [3]) [µg/mL]	Compound	IC50 (KB) [µg/mL]
63 (≈ 200 µM)			C=C1CC[C@H]2[C@H]3[C@H](CC[C@]2(C)NC=O)[C@@H](C)C[C@H](C=C(C)C)[C@H]13 (relative stereo)	
0.2 (≈ 0.584 µM)	0.6 (≈ 1.75 µM)	0.8 (≈ 2.34 µM)	[C-]#[N+][C@]1(C)[C@H](C)C[C@@H]2C[C@H](C)[C@H]3CC[C@](C)(NC=O)[C@H]4CC[C@H]1[C@@H]2[C@H]34	> 5
0.0004 (≈ 0.00109 µM)	0.0008 (≈ 0.00218 µM)	0.0002 (≈ 0.000545 µM)	O=C1C(O)=C([C@H]2CC[C@H](c3ccc(Cl)cc3)CC2)C(=O)c2ccccc21 [ATOVAQUONE]	> 5

Continued, molecule first:

Compound	IC50 (Plasmodium falciparum [1]) [µg/mL]	IC50 (Plasmodium falciparum [2]) [µg/mL]	IC50 (Plasmodium falciparum [3]) [µg/mL]	IC50 (KB) [µg/mL]
C=C(C)C[C@@H]1C[C@H](C)[C@H]2CC[C@](C)(NC=O)[C@H]3CCC(=C)[C@@H]1[C@H]23 (relative stereo)	> 90			
C[C@H]1C[C@H]2CC(C)(C)C=C3CC[C@H]4[C@@H]([C@@H]1CC[C@]4(C)NC=O)[C@@H]32 (relative stereo)	> 100			
C[C@@H]1C[C@@H]2C[C@H](C)[C@H]3CC[C@](C)(NC=O)[C@H]4CC[C@@H]([C@@H]2[C@H]34)[C@]1(C)NC=O	14.8 (≈ 41 µM)			
